“Also recorded” adds a separate entry of the source.
Biological target: lysine gingipain (Kgp) (Porphyromonas gingivalis (strain ATCC 33277 / DSM 20709 / CIP 103683 / JCM 12257 / NCTC 11834 / 2561), UniProt B2RLK2)
Experiment: Lysine gingipain (Kgp) fluorogenic inhibition assay
Assay type: biochemical
Conditions: 0.1 nM Kgp, 10 uM Z-His-Glu-Lys-MCA, 90 minutes, 37° C., pH 7.5; read-out: Kgp IC50 average
Method: The capacities of compounds of the present invention to inhibit the activity of lysine gingipain were measured in a fluorogenic assay similar to those described in Barret Biochemical Journal. 1980, 187(3), 909. The specific assay conditions were as follows. Buffer: pH=7.5, 100 mM Tris-HCl, 75 mM NaCl, 2.5 mM CaCl2, 10 mM cysteine, 1% DMSO after all additions. Protein: 0.1 nM Kgp, isolated from culture of Porphyromonas gingivalis, as described in Pike et al. J. Biol. Chem. 1994, 269(1), 406, and Potempa and Nguyen. Current Protocols in Protein Scienc. 2007, 21.20.1-21.20.27. Fluorogenic substrate: 10 uM Z-His-Glu-Lys-MCA. Time=90 minutes. Temperature=37° C. Each compound: 10 concentrations, starting at either 100 uM or 100 nM, with lower concentrations generated by serial 3-fold dilutions. By testing a range of concentrations for each compound, the concentration required to inhibit the activity of lysine gingipain by 50% (the “IC50”) was determined. Under the described assay conditions, signal-to-noise was excellent, and Z factor was greater than 0.6.
The inhibitory of activity of compounds described herein was tested against Kgp, RgpB, and trypsin.

Q: For `NCCCC[C@H](NC(=O)c1ccccn1)C(=O)c1nc2ccccc2s1` [Compound 12, N-[(1S)-5-amino-1-(1,3-benzothiazole-2-carbonyl)pentyl]pyridine-2-carboxamide], which IC50 is on record?
A: 50 to 100 nM

Q: For `NCCCC[C@H](NC(=O)c1ccncc1)C(=O)c1nc2ccccc2s1` [Compound 13, N-[(1S)-5-amino-1-(1,3-benzothiazole-2-carbonyl)pentyl]pyridine-4-carboxamide], which IC50 is on record?
A: 25 to 50 nM

Q: For `CC(=O)N1CCOC(C(=O)N[C@@H](CCCCN)C(=O)c2nc3ccccc3s2)C1` (stereo partly drawn) [Compound 29, 4-acetyl-N-[(1S)-5-amino-1-(1,3-benzothiazole-2-carbonyl)pentyl]morpholine-2-carboxamide], which IC50 is on record?
A: 10 to 25 nM

Q: For `NCCCC[C@H](NC(=O)c1nccs1)C(=O)c1nc2ccccc2s1` [Compound 39, N-[(1S)-5-amino-1-(1,3-benzothiazole-2-carbonyl)pentyl]thiazole-2-carboxamide], which IC50 is on record?
A: 50 to 100 nM

Q: Which IC50 does the source give for `NCCCC[C@H](NC(=O)OCc1ccccc1)C(=O)c1nc2ccccc2s1` [Compound 23, Benzyl-N-[(1S)-5-amino-1-(1,3-benzothiazole-2-carbonyl)pentyl]carbamate] here?
A: 100 to 250 nM

Q: Which IC50 does the source give for `NCCCC[C@H](NC(=O)C1CCCOC1)C(=O)c1nc2ccccc2s1` (single isomer, unassigned) [Compound 19] here?
A: 10 to 25 nM

Q: With `CC(=O)N1CCC[C@@H](C(=O)N[C@@H](CCCCN)C(=O)c2nc3ccccc3s2)C1` [Compound 9, (3R)-1-acetyl-N-[(1S)-5-amino-1-(1,3-benzothiazole-2-carbonyl)pentyl]piperidine-3-carboxamide] as the molecule, how does the IC50 read?
A: 1 to 10 nM

Q: Which IC50 does the source give for `NCCCC[C@H](NC(=O)[C@@H]1CCCN(C(=O)CCc2ccccc2)C1)C(=O)c1nc2ccccc2s1` [Compound 4, (3R)—N-[(1S)-5-amino-1-(1,3-benzothiazole-2-carbonyl)pentyl]-1-(3-phenylpropanoyl)piperidine-3-carboxamide] here?
A: 1 to 10 nM

Q: Which IC50 does the source give for `NCCCC[C@H](NC(=O)c1ccccc1C(F)(F)F)C(=O)c1nc2ccccc2s1` [Compound 7, N-[(1S)-5-amino-1-(1,3-benzothiazole-2-carbonyl)pentyl]-2-(trifluoromethyl)benzamide] here?
A: 25 to 50 nM

Q: With `NCCCC[C@H](NC(=O)C1CCCO1)C(=O)c1nc2ccccc2s1` (single isomer, unassigned) [Compound 34] as the molecule, how does the IC50 read?
A: 1 to 10 nM

Q: Which IC50 does the source give for `NCCCC[C@H](NC(=O)C1CCCCO1)C(=O)c1nc2ccccc2s1` (single isomer, unassigned) [Compound 25] here?
A: 25 to 50 nM

Q: Which IC50 does the source give for `NCCCC[C@H](NC(=O)c1cccc(=O)[nH]1)C(=O)c1nc2ccccc2s1` [Compound 40, N-[(1S)-5-amino-1-(1,3-benzothiazole-2-carbonyl)pentyl]-6-oxo-1H-pyridine-2-carboxamide] here?
A: 25 to 50 nM

Q: Which IC50 does the source give for `CC(=O)N1CCC[C@H](C(=O)N[C@H](CCCCN)C(=O)c2nc3ccccc3s2)C1` [Compound 10, (3S)-1-acetyl-N-[(1R)-5-amino-1-(1,3-benzothiazole-2-carbonyl)pentyl] piperidine-3-carboxamide] here?
A: 10 to 25 nM

Q: With `COC1(C(=O)N[C@@H](CCCCN)C(=O)c2nc3ccccc3s2)CCCCC1` [Compound 41, (S)—N-(6-amino-1-(benzo[d]thiazol-2-yl)-1-oxohexan-2-yl)-1-methoxycyclohexanecarboxamide] as the molecule, how does the IC50 read?
A: 10 to 25 nM

Q: With `CC(=O)N1CCC[C@@H](C(=O)N[C@H](CCCCN)C(=O)c2nc3ccccc3s2)C1` [Compound 11, (3R)-1-acetyl-N-[(1R)-5-amino-1-(1,3-benzothiazole-2-carbonyl)pentyl]piperidine-3-carboxamide] as the molecule, how does the IC50 read?
A: 1 to 10 nM

Q: For `NCCCC[C@H](NC(=O)C1CCCC1)C(=O)c1nccs1` [Compound 42, N-[(1S)-5-amino-1-(thiazole-2-carbonyl)pentyl]cyclopentanecarboxamide], which IC50 is on record?
A: 50 to 100 nM

Q: With `CC(=O)N1CCC[C@H](C(=O)N[C@@H](CCCCN)C(=O)c2nc3ccccc3s2)C1` [Compound 8, (3S)-1-acetyl-N-[(1S)-5-amino-1-(1,3-benzothiazole-2-carbonyl)pentyl] piperidine-3-carboxamide] as the molecule, how does the IC50 read?
A: 10 to 25 nM

Q: Which IC50 does the source give for `NCCCC[C@H](NC(=O)C1CCCC1)C(=O)c1nc2ccccc2s1` [Compound 24, N-[(1S)-5-amino-1-(1,3-benzothiazole-2-carbonyl)pentyl]cyclo-pentanecarboxamide] here?
A: 1 to 10 nM

Q: Which IC50 does the source give for `NCCCCC(NC(=O)[C@@H]1CCCN(C(=O)CCc2ccccc2)C1)C(=O)c1nc2ccccc2s1` (single isomer, unassigned) [Compound 15] here?
A: 1 to 10 nM

Q: For `CC1(C(=O)N[C@@H](CCCCN)C(=O)c2nc3ccccc3s2)CCCCC1` [Compound 33, N-[(1S)-5-amino-1-(1,3-benzothiazole-2-carbonyl)pentyl]-1-methyl-cyclohexanecarboxamide], which IC50 is on record?
A: 1 to 10 nM

Q: With `NCCCCC(NC(=O)[C@@H]1CCCN(C(=O)CCc2ccccc2)C1)C(=O)c1nc2ccccc2s1` (single isomer, unassigned) [Compound 14] as the molecule, how does the IC50 read?
A: 1 to 10 nM

Q: Which IC50 does the source give for `NCCCC[C@H](NC(=O)C1CCCCO1)C(=O)c1nc2ccccc2s1` (single isomer, unassigned) [Compound 26] here?
A: 25 to 50 nM

Q: With `NCCCC[C@H](NC(=O)C1CCOCC1)C(=O)c1nc2ccccc2s1` [Compound 22, N-[(1S)-5-amino-1-(1,3-benzothiazole-2-carbonyl)pentyl]tetrahydropyran-4-carboxamide] as the molecule, how does the IC50 read?
A: 10 to 25 nM

Q: Which IC50 does the source give for `NCCCC[C@H](NC(=O)c1cncs1)C(=O)c1nc2ccccc2s1` [Compound 38, N-[(1S)-5-amino-1-(1,3-benzothiazole-2-carbonyl)pentyl]thiazole-5-carboxamide] here?
A: 10 to 25 nM

Q: Which IC50 does the source give for `NCCCC[C@H](NC(=O)C1CCc2ccccc2C1)C(=O)c1nc2ccccc2s1` (stereo partly drawn) [Compound 32, N-[(1S)-5-amino-1-(1,3-benzothiazole-2-carbonyl)pentyl]tetralin-2-carboxamide] here?
A: 1 to 10 nM

Q: Which IC50 does the source give for `NCCCC[C@H](NC(=O)C1CCCc2ccccc21)C(=O)c1nc2ccccc2s1` (stereo partly drawn) [Compound 31, N-[(1S)-5-amino-1-(1,3-benzothiazole-2-carbonyl)pentyl]tetralin-1-carboxamide] here?
A: 10 to 25 nM

Q: For `NCCCC[C@H](NC(=O)[C@H]1CCCN(C(=O)CCc2ccccc2)C1)C(=O)c1nc2ccccc2s1` [Compound 3, (3S)—N-[(1S)-5-amino-1-(1,3-benzothiazole-2-carbonyl)pentyl]-1-(3-phenylpropanoyl)piperidine-3-carboxamide], which IC50 is on record?
A: 10 to 25 nM

Q: For `NCCCC[C@H](NC(=O)C1CCCC1)C(=O)c1ccccn1` [Compound 44, N-[(1S)-5-amino-1-(pyridine-2-carbonyl)pentyl]cyclopentanecarboxamide], which IC50 is on record?
A: > 250 nM

Q: Which IC50 does the source give for `NCCCC[C@H](NC(=O)c1cccnc1)C(=O)c1nc2ccccc2s1` [Compound 30, N-[(1S)-5-amino-1-(1,3-benzothiazole-2-carbonyl)pentyl]pyridine-3-carboxamide] here?
A: 25 to 50 nM

Q: For `NCCCC[C@H](NC(=O)C1CCCO1)C(=O)c1nc2ccccc2s1` (single isomer, unassigned) [Compound 35], which IC50 is on record?
A: 1 to 10 nM

Q: Which IC50 does the source give for `NCCCC[C@H](NC(=O)C1CCCOC1)C(=O)c1nc2ccccc2s1` (single isomer, unassigned) [Compound 18] here?
A: 10 to 25 nM

Same assay, conditions: read-out: Kgp IC50

Q: Which IC50 does the source give for `NCCCC[C@H](NC(=O)[C@@H]1CCCN(C(=O)CCc2ccccc2)C1)C(=O)c1nc2ccccc2s1` [Compound 4, (3R)—N-[(1S)-5-amino-1-(1,3-benzothiazole-2-carbonyl)pentyl]-1-(3-phenylpropanoyl)piperidine-3-carboxamide] here?
A: 1 to 10 nM

Q: Which IC50 does the source give for `NCCCC[C@H](NC(=O)[C@H]1CCCN(C(=O)CCc2ccccc2)C1)C(=O)c1nc2ccccc2s1` [Compound 3, (3S)—N-[(1S)-5-amino-1-(1,3-benzothiazole-2-carbonyl)pentyl]-1-(3-phenylpropanoyl)piperidine-3-carboxamide] here?
A: 10 to 25 nM

Biological target: trypsin (Homo sapiens (Human), UniProt P07477)
Experiment: not given
Conditions: cited from earlier work

Q: For `NCCC[C@H](NC(=O)C1CCCN(C(=O)CCc2ccccc2)C1)C(=O)c1nc2ccccc2s1` (mixture of isomers) [Compound A71561, 1-(3-phenylpropionyl)piperidine-3(R,S)-carboxylic acid [4-amino-1(S)-(benzothiazole-2-carbonyl)butyl]amide], which Ki is on record?
A: 30 nM

Biological target: Kgp (Porphyromonas gingivalis (strain ATCC 33277 / DSM 20709 / CIP 103683 / JCM 12257 / NCTC 11834 / 2561), UniProt B2RLK2)
Experiment: not given
Conditions: cited from earlier work

Q: Which Ki does the source give for `NCCC[C@H](NC(=O)C1CCCN(C(=O)CCc2ccccc2)C1)C(=O)c1nc2ccccc2s1` (mixture of isomers) [Compound A71561, 1-(3-phenylpropionyl)piperidine-3(R,S)-carboxylic acid [4-amino-1(S)-(benzothiazole-2-carbonyl)butyl]amide] here?
A: 0.9 nM

System: differentiated SHSY-5Y cells
Experiment: Gingipain-induced death of differentiated SH-SY5Y cells
Assay type: cell-based
Conditions: 100 nM Kgp and/or RgpB for 24 hours
Method: SH-SY5Y neuroblastoma cells were cultured and differentiated in the presence of 5 uM retinoic acid based on established methods [Saberi S., et al. Cell Mol Neurobiol 2013. 33: 747-751]. Differentiation into neuronal cells was verified by observation of neurite outgrowth. The differentiated cells were exposed to 100 nM Kgp and/or RgpB for 24 hours, in the presence or absence of Kgp inhibitors. Results were recorded using a digital microscope camera (FIG. 1C, FIG. 2C). Gingipains are toxic to cells while COR compounds prevent the cytotoxicity.

Q: Which “prevention of gingipain-induced death of differentiated SHSY-5Y cells” value (from here on “prevention … of differentiated SHSY-5Y cells”) does the source give for `NCCCC[C@H](NC(=O)[C@@H]1CCCN(C(=O)CCc2ccccc2)C1)C(=O)c1nc2ccccc2s1` [Compound 4, (3R)—N-[(1S)-5-amino-1-(1,3-benzothiazole-2-carbonyl)pentyl]-1-(3-phenylpropanoyl)piperidine-3-carboxamide] here?
A: prevents

Q: With `NCCCC[C@H](NC(=O)c1ccccc1)C(=O)c1nc2ccccc2s1` [Compound 1, N-[(1S)-5-amino-1-(1,3-benzothiazole-2-carbonyl)pentyl]benzamide] as the molecule, how does the “prevention … of differentiated SHSY-5Y cells” value read?
A: prevents; also recorded: effective at preventing cell death

Q: With `NCCCC[C@H](NC(=O)[C@H]1CCCN(C(=O)CCc2ccccc2)C1)C(=O)c1nc2ccccc2s1` [Compound 3, (3S)—N-[(1S)-5-amino-1-(1,3-benzothiazole-2-carbonyl)pentyl]-1-(3-phenylpropanoyl)piperidine-3-carboxamide] as the molecule, how does the “prevention … of differentiated SHSY-5Y cells” value read?
A: does not

Same assay, conditions: 100 nM Kgp and/or RgpB for 24 hours; listed as 2-(N—[N-(3-phenylpropanoyl)-(R)-nipecotinyl]-(R)-lysinyl)-benzothiazole

Q: Which “prevention … of differentiated SHSY-5Y cells” value does the source give for `NCCCC[C@H](NC(=O)[C@@H]1CCCN(C(=O)CCc2ccccc2)C1)C(=O)c1nc2ccccc2s1` [Compound 4, (3R)—N-[(1S)-5-amino-1-(1,3-benzothiazole-2-carbonyl)pentyl]-1-(3-phenylpropanoyl)piperidine-3-carboxamide] here?
A: effective at preventing cell death
